Earlier results, collected in patent US20130085461A1, “Method for Pre-Debriding Treatment of Non-Viable Skin Tissue and Compositions and System Thereof” (BIOMEDICAL CONCEPTS LLC, priority 2011, published 2013).
Where two headings read alike, the source gives them in different places.

Molecular target: T1, rat tail Type I collagen (Rattus norvegicus, UniProt P02454+P02466)
T1 construct: host or cells: rat tail (tissue), as reported in the cited work
Conditions: non-viable rat tail Type I collagen

T1 sequence (P02454 152-1207 limits assumed): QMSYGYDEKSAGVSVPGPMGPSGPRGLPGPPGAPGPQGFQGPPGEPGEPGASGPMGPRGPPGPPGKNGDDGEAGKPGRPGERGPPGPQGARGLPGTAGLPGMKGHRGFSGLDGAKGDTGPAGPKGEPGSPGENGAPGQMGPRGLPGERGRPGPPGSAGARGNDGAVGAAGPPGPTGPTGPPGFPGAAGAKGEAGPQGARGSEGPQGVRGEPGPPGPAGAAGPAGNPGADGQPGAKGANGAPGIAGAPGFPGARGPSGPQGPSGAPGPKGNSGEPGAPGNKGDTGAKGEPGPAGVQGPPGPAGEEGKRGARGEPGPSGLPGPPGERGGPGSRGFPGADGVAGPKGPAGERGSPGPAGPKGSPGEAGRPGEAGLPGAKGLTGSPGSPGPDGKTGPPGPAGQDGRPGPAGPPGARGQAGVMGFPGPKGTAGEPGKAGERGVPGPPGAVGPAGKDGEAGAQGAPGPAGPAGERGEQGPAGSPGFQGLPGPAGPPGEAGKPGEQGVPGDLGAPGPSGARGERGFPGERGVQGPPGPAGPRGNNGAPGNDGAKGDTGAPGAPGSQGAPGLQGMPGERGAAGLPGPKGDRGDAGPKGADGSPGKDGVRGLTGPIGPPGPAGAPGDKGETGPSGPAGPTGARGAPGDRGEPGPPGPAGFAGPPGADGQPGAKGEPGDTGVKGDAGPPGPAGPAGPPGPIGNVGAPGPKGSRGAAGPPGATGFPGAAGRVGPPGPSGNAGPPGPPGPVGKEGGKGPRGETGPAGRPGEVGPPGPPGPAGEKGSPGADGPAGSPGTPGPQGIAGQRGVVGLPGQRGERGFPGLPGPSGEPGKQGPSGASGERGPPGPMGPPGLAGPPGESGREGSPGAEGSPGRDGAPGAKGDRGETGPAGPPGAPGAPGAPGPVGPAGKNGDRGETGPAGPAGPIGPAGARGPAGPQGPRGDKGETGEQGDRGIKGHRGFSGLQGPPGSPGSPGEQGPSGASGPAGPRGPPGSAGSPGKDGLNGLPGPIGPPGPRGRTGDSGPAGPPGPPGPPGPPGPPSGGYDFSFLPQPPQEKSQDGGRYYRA
T1 sequence (P02466 86-1125 limits assumed): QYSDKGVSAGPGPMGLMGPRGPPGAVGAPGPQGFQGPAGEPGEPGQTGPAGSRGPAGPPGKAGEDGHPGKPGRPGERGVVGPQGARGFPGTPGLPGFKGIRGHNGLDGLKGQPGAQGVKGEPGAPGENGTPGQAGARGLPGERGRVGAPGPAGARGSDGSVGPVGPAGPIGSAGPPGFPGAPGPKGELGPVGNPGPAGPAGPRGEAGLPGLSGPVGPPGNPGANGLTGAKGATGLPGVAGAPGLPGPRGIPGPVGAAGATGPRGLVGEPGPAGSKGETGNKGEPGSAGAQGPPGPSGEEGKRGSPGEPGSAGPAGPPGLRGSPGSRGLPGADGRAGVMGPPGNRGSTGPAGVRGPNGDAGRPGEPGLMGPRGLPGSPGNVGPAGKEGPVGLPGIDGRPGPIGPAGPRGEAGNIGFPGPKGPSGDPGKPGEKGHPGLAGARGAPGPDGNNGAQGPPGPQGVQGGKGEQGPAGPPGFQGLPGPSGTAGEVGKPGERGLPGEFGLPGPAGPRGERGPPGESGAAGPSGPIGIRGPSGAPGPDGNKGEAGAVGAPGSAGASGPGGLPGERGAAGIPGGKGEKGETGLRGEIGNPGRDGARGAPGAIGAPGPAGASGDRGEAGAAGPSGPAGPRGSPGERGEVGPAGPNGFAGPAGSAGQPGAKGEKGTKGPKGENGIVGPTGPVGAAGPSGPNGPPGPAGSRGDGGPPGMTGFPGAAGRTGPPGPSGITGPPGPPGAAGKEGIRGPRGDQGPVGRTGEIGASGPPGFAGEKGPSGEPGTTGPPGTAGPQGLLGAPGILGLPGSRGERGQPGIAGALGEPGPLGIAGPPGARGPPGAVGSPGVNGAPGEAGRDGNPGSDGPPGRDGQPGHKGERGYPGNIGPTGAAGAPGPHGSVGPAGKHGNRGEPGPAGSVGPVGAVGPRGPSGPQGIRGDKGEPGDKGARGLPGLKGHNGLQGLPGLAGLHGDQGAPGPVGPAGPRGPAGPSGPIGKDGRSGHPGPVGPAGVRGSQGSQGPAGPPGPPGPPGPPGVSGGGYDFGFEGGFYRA

Structure (SMILES)	reduction of denaturation temperature (Tm=67.5° C.) (10 mole %) [°C]	reduction of denaturation temperature (Tm=67.5° C.) (3M) [°C]
CCCO [n-propanol]	3.5	–
NC(N)=O [urea]	–	13.5
